Literature values, collected in patent US4535081A, “Antiallergic and antiulcer 1-oxo-1H-thiazolo[3,2-a]pyrimidine-2-carboxamides and intermediates therefor” (Pfizer Inc., priority 1983, dated 1985).

Tests used:
[1] = test system: gastric acid secretion; conditions: literature; cited from earlier work
[2] = test system: gastric ulcers; conditions: literature; cited from earlier work

CN/C(=N/CCSCc1nc[nH]c1C)NC#N [cimetidine]
effect on ulcers / gastric acid secretion [1]: alleviates ulcers by reducing gastric acid secretion

CC1(C)[C@@H](OC(=O)CCC(=O)O)CC[C@]2(C)[C@H]3C(=O)C=C4[C@@H]5C[C@@](C)(C(=O)O)CC[C@]5(C)CC[C@@]4(C)[C@]3(C)CC[C@@H]12 [carbenoxolone sodium]
effect on gastric ulcers [2]: prevent formation of and to accelerate healing of gastric ulcers in animals, including humans
